Data reported in the NIST ThermoML archive (doi:10.1021/je025538u).

How the values were obtained:
[1] = cn = amount concentration of the nth substance listed, in mol/dm3; conditions: 101.3 kPa, Liquid
[2] = 101.33 kPa, Liquid

CCCCCCCCCCCC(=O)O [dodecanoic acid] + CCC(C)O
[1]
Conditions	mass density, 293.15 K [kg/m3]	mass density, 303.15 K [kg/m3]	mass density, 313.15 K [kg/m3]	mass density, 333.15 K [kg/m3]	viscosity, 293.15 K [mPa·s]	viscosity, 303.15 K [mPa·s]	viscosity, 313.15 K [mPa·s]	viscosity, 333.15 K [mPa·s]
c1 = 0.0103	806.38	798.71	791.02	778.39	3.58	2.547	1.81	1.05
c1 = 0.05	807.27	800.23	793.39	779.62	3.665	2.548	1.818	1.04
c1 = 0.1003	807.29	800.56	794.11	780.76	3.7	2.573	1.851	1.07
c1 = 0.15	808.85	801.14	794.51	782	3.688	2.585	1.865	1.08
c1 = 0.2001	808.76	801.85	794.64	782.9	3.744	2.624	1.877	1.1
c1 = 0.35	812.86	805.19	797.47	785.3	3.841	2.704	1.951	1.15

CCC(C)O (stereo not drawn) [butan-2-ol]
[2]
Conditions	mass density [kg/m3]	viscosity [mPa·s]
293.15 K	806.6	3.663
303.15 K	799.3	2.527
313.15 K	792.2	1.801
333.15 K	778	1.025

CCCCCCCCCCCCCCCC(=O)O [hexadecanoic acid] + CCC(C)O
[1]
Conditions	mass density, 293.15 K [kg/m3]	mass density, 303.15 K [kg/m3]	mass density, 313.15 K [kg/m3]	mass density, 333.15 K [kg/m3]	viscosity, 293.15 K [mPa·s]	viscosity, 303.15 K [mPa·s]	viscosity, 313.15 K [mPa·s]	viscosity, 333.15 K [mPa·s]
c1 = 0.01	807.66	799.68	792.63	–	3.53	2.464	1.751	–
c1 = 0.05	807.67	800.09	792.74	782.3	3.616	2.499	1.789	1.09
c1 = 0.1	809.21	801.34	794.66	782.9	3.613	2.512	1.808	1.08
c1 = 0.1501	810.16	802.89	795.01	783.19	3.7	2.585	1.85	1.13
c1 = 0.2001	810.6	802.96	795.11	783.51	3.828	2.665	1.921	1.14
c1 = 0.3501	813.04	806.24	799.34	787.5	4.056	2.834	2.045	1.27

CCCCCCCCCCCCCCCCCC(=O)O [octadecanoic acid] + CCC(C)O
[1]
Conditions	mass density, 293.15 K [kg/m3]	mass density, 303.15 K [kg/m3]	mass density, 313.15 K [kg/m3]	mass density, 333.15 K [kg/m3]	viscosity, 293.15 K [mPa·s]	viscosity, 303.15 K [mPa·s]	viscosity, 313.15 K [mPa·s]	viscosity, 333.15 K [mPa·s]
c1 = 0.01	806.45	798.83	792.46	–	3.611	2.499	1.766	–
c1 = 0.05	806.9	799.7	792.65	782.79	3.679	2.531	1.808	1.09
c1 = 0.1	813.95	806.09	796.45	783.92	3.795	2.466	1.79	1.1
c1 = 0.15	810.78	803.5	796.91	784.23	3.785	2.627	1.886	1.16
c1 = 0.2	811.62	804.54	797.76	785.41	3.799	2.584	1.881	1.16
c1 = 0.3501	814.68	806.92	800.5	788.89	4.177	2.919	2.017	1.36
